Values of other authors, collected in PMC9897045 (ACS Omega, 2023).
Read-outs that look alike come from different tables or passages of the source.

Legend:
[1] = tested on: main protease (Mpro, 3CLpro, nsp5); conditions: read-out: EC50 against main protease (Mpro)

In the case of `Cn1cnc(Cn2c(=O)[nH]/c(=N\c3cc4cn(C)nc4cc3Cl)n(Cc3cc(F)c(F)cc3F)c2=O)n1` [S-217622, (6E)-6-[(6-chloro-2-methyl-2H-indazol-5-yl)imino]-3-[(1-methyl-1H-1,2,4-triazol-3-yl)methyl]-1-(2,4,5-trifluorobenzyl)-1,3,5-triazinane-2,4-dione], the EC50 (SARS-CoV-2; read-out: EC50 against SARS-CoV-2, range over strains, CPE EC50) is listed as 290 to 500 nM, the EC50 (SARS-CoV-2; read-out: EC50 against SARS-CoV-2 Alpha strain, strain QK002) is listed as 330 nM and the EC50 (SARS-CoV-2; read-out: EC50 against SARS-CoV-2 Beta strain, strain TY8-612) is listed as 400 nM. For the same compound, the EC50 (SARS-CoV-2; read-out: EC50 against SARS-CoV-2 Delta strain, strain TY11-927-P1) was 410 nM, the EC50 (SARS-CoV-2; read-out: EC50 against SARS-CoV-2 Gamma strain, strain TY7-501) was 500 nM and the EC50 (SARS-CoV-2; read-out: EC50 against SARS-CoV-2 Omicron strain, strain TY38-873) was 290 nM. The EC50 [1] was 13 nM.
